Values after ≈ are worked out from the molar mass of the structure shown.

The nature of series [1]: Cmax in mouse at 400 mg/kg, ip. Format: ADME, organism-based. Also on record: dose 400 mg/kg, route ip. To be noted: in vivo.
The nature of series [2]: Stability in rat plasma assessed as half life. Format: ADME, cell-free.
A short description of series [3]: Stability in human plasma assessed as half life. Format: ADME, cell-free.
Series [4] is described as follows: Half life in mouse at 400 mg/kg, ip. It is filed as ADME, organism-based. To be noted: in vivo.
Series [5] is described as follows: Stability in rat liver microsomes assessed as half life. It is filed as ADME, Microsome.
Series [6] can be described thus: Tmax in mouse at 400 mg/kg, ip. Format: ADME, organism-based. To be noted: in vivo.
A short description of series [7]: Stability in porcine plasma assessed as half life. Format: ADME, cell-free, Sus scrofa. To be noted: pig.
Series [8] is described as follows: Apparent permeability across basolateral to apical side in human Caco-2 cells. Format: ADME, cell-based. In general terms: Caco-2 monolayers are a common model of the intestinal barrier.
The nature of series [9]: Antialzheimer activity in rat Primary cortical neurons assessed as reduction in amyloid beta 40 level incubated for 24 hrs by ELISA relative to control. It is filed as functional, Cortical neurone. Also on record: scale not given: the % may be the effect or the level left.
Series [10] in a line: Apparent permeability across apical to basolateral side in human Caco-2 cells. Format: ADME, cell-based.
In series [11] the target is T1, Protein deacetylase HDAC6 (Homo sapiens, UniProt Q9UBN7).
T1 sequence (Q9UBN7 whole entry): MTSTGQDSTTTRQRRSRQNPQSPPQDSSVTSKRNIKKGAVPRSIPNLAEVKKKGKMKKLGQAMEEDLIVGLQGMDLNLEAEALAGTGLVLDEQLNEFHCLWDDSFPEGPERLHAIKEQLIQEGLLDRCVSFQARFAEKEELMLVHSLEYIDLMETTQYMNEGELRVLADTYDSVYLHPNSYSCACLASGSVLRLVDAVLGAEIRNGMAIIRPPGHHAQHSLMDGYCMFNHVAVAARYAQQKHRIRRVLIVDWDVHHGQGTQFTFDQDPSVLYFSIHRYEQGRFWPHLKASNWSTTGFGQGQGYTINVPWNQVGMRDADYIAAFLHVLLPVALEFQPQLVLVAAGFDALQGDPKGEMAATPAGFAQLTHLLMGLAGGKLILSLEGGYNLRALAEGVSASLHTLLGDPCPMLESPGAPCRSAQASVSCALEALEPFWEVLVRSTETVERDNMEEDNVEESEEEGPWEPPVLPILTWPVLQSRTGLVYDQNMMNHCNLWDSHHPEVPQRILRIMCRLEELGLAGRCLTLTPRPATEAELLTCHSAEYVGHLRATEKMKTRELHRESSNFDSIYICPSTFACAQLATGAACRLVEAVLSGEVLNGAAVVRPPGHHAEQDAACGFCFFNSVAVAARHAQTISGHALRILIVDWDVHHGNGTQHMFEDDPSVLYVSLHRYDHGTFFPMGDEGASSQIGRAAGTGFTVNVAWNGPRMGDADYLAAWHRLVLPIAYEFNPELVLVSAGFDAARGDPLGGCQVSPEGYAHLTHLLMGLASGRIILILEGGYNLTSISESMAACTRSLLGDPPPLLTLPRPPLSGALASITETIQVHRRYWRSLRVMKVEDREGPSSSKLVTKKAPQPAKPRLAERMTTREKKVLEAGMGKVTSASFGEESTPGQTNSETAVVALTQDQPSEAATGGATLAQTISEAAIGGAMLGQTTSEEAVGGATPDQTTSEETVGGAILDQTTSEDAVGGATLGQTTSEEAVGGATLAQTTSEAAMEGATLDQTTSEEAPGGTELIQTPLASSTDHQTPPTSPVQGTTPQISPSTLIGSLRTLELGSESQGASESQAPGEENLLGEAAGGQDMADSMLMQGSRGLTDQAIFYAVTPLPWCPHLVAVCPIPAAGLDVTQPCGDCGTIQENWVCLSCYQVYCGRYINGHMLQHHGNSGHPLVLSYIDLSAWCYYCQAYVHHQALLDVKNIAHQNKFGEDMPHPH
The experiment in a line: Inhibition of HDAC6 (unknown origin).

Series [12] in a line: Clearance in mouse at 400 mg/kg, ip. It is filed as ADME, organism-based. To be noted: in vivo.
A short description of series [13]: Lipophilicity, logD of the compound at 37 degreeC. Format: physicochemical. To be noted: octanol/water.
Series [14] is described as follows: Solubility of compound in PBS at pH 7.4 at 37 degreeC measured after 24 hrs. It is filed as physicochemical.
The test system of series [15] is N2a. The experiment in a line: Antialzheimer activity in mouse N2a cells overexpressing hAPP assessed as reduction in human amyloid beta 42 level at 1 to 5 uM incubated for 24 hrs by ELISA relative to control. Format: functional. Details: scale not given: the % may be the effect or the level left. To be noted: dose 1-5 µM. (ELISA stands for enzyme-linked immunosorbent assay.)

Series [16] can be described thus: Stability in dog liver microsomes assessed as half life. It is filed as ADME, Canis lupus familiaris, Microsome. (Liver microsomes are a subcellular fraction often used to study metabolism.)
Series [17] can be described thus: Solubility of compound in HCl at pH 1.2 at 37 degreeC measured after 24 hrs. Format: physicochemical.
Series [18] is described as follows: AUC in mouse at 400 mg/kg, ip. It is filed as ADME, organism-based. Also on record: dose 400 mg/kg, route ip. To be noted: in vivo.
The nature of series [19]: Stability in mouse plasma assessed as half life. It is filed as ADME, cell-free.
Series [20] can be described thus: Stability in human liver microsomes assessed as half life. Format: ADME, Microsome.
For series [21], the system named is N2a. The experiment in a line: Antialzheimer activity in mouse N2a cells overexpressing hAPP assessed as reduction in human amyloid beta 40 level at 1 to 5 uM incubated for 24 hrs by ELISA relative to control. It is filed as functional. To be noted: dose 1-5 µM. Details: scale not given: the % may be the effect or the level left.

Turning to `O=C(CS)NCCCCCC(=O)Nc1cccc2cccnc12`, the Cmax (commonly the peak of the concentration-time curve) in [1] came to 1810 nM. The half-life (in general, the time in which the quantity being followed falls by half) in series [2] was 1.53 h; in series [3] it was 1.32 h; in [4], 2.2 h; in series [5], 1.1 h; in [7], 1.15 h; in [16] it was 1.2 h. For the same molecule, the half-life in series [19] came out at 0.967 h; in series [20] it was 1.38 h. For the same molecule, the Tmax (as a rule, the time at which the peak concentration occurs) in [6] turned out to be 0.5 h. Further, the Papp B→A (as a rule, the apparent permeability from the basolateral to the apical side of a cell layer) in [8] was found to be 24.7 ×10⁻⁶ cm/s. The Activity (in [9]; in the series with N2a [15]; in the series with N2a [21]) was 20% throughout. Further, the apparent permeability from apical to basolateral (Papp A→B) (in general, how fast a substance crosses the layer from the apical side) in [10] came out at 15 ×10⁻⁶ cm/s. Besides, in series [11], the half-maximal inhibitory concentration (IC50) (usually the concentration at which inhibition is half-maximal) is 20 nM. In addition, the CL/F (usually clearance divided by bioavailability, as obtained after extravascular dosing) in series [12] is 67.5 mL/min. Besides, the log distribution coefficient (logD) (usually the decadic logarithm of the distribution of all forms, ionised or not, between an organic phase and buffer at a given pH) in series [13] stood at 2.64. Also, the solubility (in general, how much of the substance goes into solution per volume) at 24 h in series [14] came to 150 µg/mL (≈ 453 µM); in series [17], 1000 µg/mL (≈ 3020 µM). In series [18], the AUC (usually the area under the concentration-time curve, a measure of exposure) came out at 4.97 µM·h.

The values are drawn from ChEMBL document CHEMBL5226279, “Mercaptoacetamide: A promising zinc-binding group for the discovery of selective histone deacetylase 6 inhibitors” (Eur J Med Chem, 2021).
